In US20230167118A1, “DEGRADATION OF BRUTON'S TYROSINE KINASE (BTK) BY CONJUGATION OF BTK INIDBITORS WITH E3 LIGASE LIGAND AND METHODS OF USE” (BEIGENE, LTD., priority 2020, published 2023):

Tests used:
BTK = target: T1, BTK (Homo sapiens, UniProt Q06187); experiment: Cell Degradation: BTK degradation in TMD-8 cells, HTRF assay; type: cell-based; conditions: 6 h treatment, IC50 (DC50) of BTK degradation
T1 construct: High control=Cell group with added DMSO and without compound, indicating microplate readings without BTK degradation; endogenous in cells; host or cells: TMD-8 cells
Summary of the method: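 TMD-8 cells treated 6 h with 8-dose 6-fold dilutions in 0.2% DMSO, then lysed and BTK quantified by HTRF (665/620 nm). Degradation % normalised to high/low controls; DC50 from four-parameter fit, Dmax as maximal degradation.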

HEK-293 cells = experiment: HEK-293 Cytotoxicity Assay (CellTiter-Glo); type: cell-based; conditions: Homo sapiens, HEK293, 72 h incubation, CellTiter-Glo luminescence
Summary of the method: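 HEK-293 cells treated 72 h with 8 concentrations (4-fold dilutions, 0.2% DMSO final). Viability read by CellTiter-Glo luminescence; IC50 from four-parameter logistic fit of % inhibition.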

T1 sequence (Q06187 whole entry): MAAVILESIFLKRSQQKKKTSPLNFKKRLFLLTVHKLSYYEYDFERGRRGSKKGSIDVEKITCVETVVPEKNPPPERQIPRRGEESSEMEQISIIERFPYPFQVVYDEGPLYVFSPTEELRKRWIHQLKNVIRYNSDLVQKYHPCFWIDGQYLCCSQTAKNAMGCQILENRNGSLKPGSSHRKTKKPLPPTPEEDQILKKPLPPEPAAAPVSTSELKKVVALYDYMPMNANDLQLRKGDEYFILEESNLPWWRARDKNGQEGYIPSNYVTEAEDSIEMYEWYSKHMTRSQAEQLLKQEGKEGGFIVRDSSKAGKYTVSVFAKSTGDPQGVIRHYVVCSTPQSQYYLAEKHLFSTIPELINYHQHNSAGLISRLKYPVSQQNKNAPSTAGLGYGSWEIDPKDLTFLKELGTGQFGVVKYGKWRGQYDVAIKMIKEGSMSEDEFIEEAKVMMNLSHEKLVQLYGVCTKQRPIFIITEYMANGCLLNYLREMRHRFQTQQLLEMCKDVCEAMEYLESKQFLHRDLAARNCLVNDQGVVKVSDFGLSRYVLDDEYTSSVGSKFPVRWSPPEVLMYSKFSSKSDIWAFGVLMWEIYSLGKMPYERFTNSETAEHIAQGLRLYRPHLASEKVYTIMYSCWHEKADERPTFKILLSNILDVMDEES

SMILES	DC50 (BTK)	IC50 (HEK-293 cells)
Cc1nn(C2CCN(CC3CCN(c4ccc(N5CCC(=O)NC5=O)cc4)CC3)CC2)c(C)c1-c1cc2c(-c3ccc([C@@H](C)NC(=O)c4cn(C(C)(C)C)nn4)c(CO)c3)ncnc2[nH]1 [Example 122, (R)-1-(tert-butyl)-N-(1-(4-(6-(1-(1-((1-(4-(2,4-dioxotetrahydropyrimidin-1(2H)-yl)phenyl)piperidin-4-yl)methyl)piperidin-4-yl)-3,5-dimethyl-1H-pyrazol-4-yl)-7H-pyrrolo[2,3-d]pyrimidin-4-yl)-2-(hydroxymethyl)phenyl)ethyl)-1H-1,2,3-triazole-4-carboxamide]	0.29 nM	4.11 µM
Cc1cc(-c2ncnc3[nH]c(-c4ccc(N5CCN(CC6CCN(c7ccc(N8CCC(=O)NC8=O)c(C)c7)CC6)CC5)cn4)cc23)ccc1[C@@H](C)NC(=O)c1noc(C2(CO)CC2)n1 [Example 123, (R)-N-(1-(4-(6-(5-(4-((1-(4-(2,4-dioxotetrahydropyrimidin-1(2H)-yl)-3-methylphenyl)piperidin-4-yl)methyl)piperazin-1-yl)pyridin-2-yl)-7H-pyrrolo[2,3-d]pyrimidin-4-yl)-2-methylphenyl)ethyl)-5-(1-(hydroxymethyl)cyclopropyl)-1,2,4-oxadiazole-3-carboxamide]	0.16 nM	> 10 µM
Cc1cc(-c2ncnc3[nH]c(-c4ccc(N5CCN(CC6CCN(c7ccc(N8CCC(=O)NC8=O)cc7)CC6)CC5)cn4)cc23)ccc1[C@@H](C)NC(=O)c1noc(C2(C)CC2)n1 [Example 124, (R)-N-(1-(4-(6-(5-(4-((1-(4-(2,4-dioxotetrahydropyrimidin-1(2H)-yl)phenyl)piperidin-4-yl)methyl)piperazin-1-yl)pyridin-2-yl)-7H-pyrrolo[2,3-d]pyrimidin-4-yl)-2-methylphenyl)ethyl)-5-(1-methylcyclopropyl)-1,2,4-oxadiazole-3-carboxamide]	1.01 nM	> 10 µM
Cc1cc(-c2ncnc3[nH]c(-c4ccc(N5CCN(CC6CCN(c7ccc(N8CCC(=O)NC8=O)c(C)c7)CC6)CC5)cn4)cc23)ccc1[C@@H](C)NC(=O)c1noc(C2(C)CC2)n1 [Example 125, (R)-N-(1-(4-(6-(5-(4-((1-(4-(2,4-dioxotetrahydropyrimidin-1(2H)-yl)-3-methylphenyl)piperidin-4-yl)methyl)piperazin-1-yl)pyridin-2-yl)-7H-pyrrolo[2,3-d]pyrimidin-4-yl)-2-methylphenyl)ethyl)-5-(1-methylcyclopropyl)-1,2,4-oxadiazole-3-carboxamide]	0.74 nM	> 10 µM
Cc1cc(-c2ncnc3[nH]c(-c4ccc(N5CCN(CC6CCN(c7ccc(N8CCC(=O)NC8=O)c(C)c7)CC6)CC5)nc4)cc23)ccc1[C@@H](C)NC(=O)c1noc(C2(C)CC2)n1 [Example 126, (R)-N-(1-(4-(6-(6-(4-((1-(4-(2,4-dioxotetrahydropyrimidin-1(2H)-yl)-3-methylphenyl)piperidin-4-yl)methyl)piperazin-1-yl)pyridin-3-yl)-7H-pyrrolo[2,3-d]pyrimidin-4-yl)-2-methylphenyl)ethyl)-5-(1-methylcyclopropyl)-1,2,4-oxadiazole-3-carboxamide]	0.41 nM	> 10 µM
Cc1c([C@@H](C)NC(=O)c2noc(C(C)(C)C)n2)ccc(-c2ncnc3[nH]c(-c4ccc(N5CCN(CC6CCN(c7ccc(N8CCC(=O)NC8=O)cc7)CC6)CC5)cn4)cc23)c1F [Example 127, (R)-5-(tert-butyl)-N-(1-(4-(6-(5-(4-((1-(4-(2,4-dioxotetrahydropyrimidin-1(2H)-yl)phenyl)piperidin-4-yl)methyl)piperazin-1-yl)pyridin-2-yl)-7H-pyrrolo[2,3-d]pyrimidin-4-yl)-3-fluoro-2-methylphenyl)ethyl)-1,2,4-oxadiazole-3-carboxamide]	0.42 nM	> 10 µM
Cc1cc(-c2ncnc3[nH]c(-c4ccc(N5CCN(CC6CCN(c7ccc(N8CCC(=O)NC8=O)cc7)CC6)CC5)nc4)cc23)c(F)cc1[C@@H](C)NC(=O)c1noc(C(C)(C)C)n1 [Example 131, (R)-5-(tert-butyl)-N-(1-(4-(6-(6-(4-((1-(4-(2,4-dioxotetrahydropyrimidin-1(2H)-yl)phenyl)piperidin-4-yl)methyl)piperazin-1-yl)pyridin-3-yl)-7H-pyrrolo[2,3-d]pyrimidin-4-yl)-5-fluoro-2-methylphenyl)ethyl)-1,2,4-oxadiazole-3-carboxamide]	0.59 nM	> 10 µM
Cc1cc(-c2ncnc3[nH]c(-c4ccc(N5CCN(CC6CCN(c7ccc(N8CCC(=O)NC8=O)c(C)c7)CC6)CC5)nc4)cc23)c(F)cc1[C@@H](C)NC(=O)c1noc(C(C)(C)C)n1 [Example 132, (R)-5-(tert-butyl)-N-(1-(4-(6-(6-(4-((1-(4-(2,4-dioxotetrahydropyrimidin-1(2H)-yl)-3-methylphenyl)piperidin-4-yl)methyl)piperazin-1-yl)pyridin-3-yl)-7H-pyrrolo[2,3-d]pyrimidin-4-yl)-5-fluoro-2-methylphenyl)ethyl)-1,2,4-oxadiazole-3-carboxamide]	0.79 nM	> 10 µM
Cc1cc(-c2ncnc3[nH]c(-c4ccc(N5CCN(CC6CCN(c7ccc(N8CCC(=O)NC8=O)cc7)CC6)CC5)cn4)cc23)c(F)cc1[C@@H](C)NC(=O)c1noc(C(C)(C)C)n1 [Example 134, (R)-5-(tert-butyl)-N-(1-(4-(6-(5-(4-((1-(4-(2,4-dioxotetrahydropyrimidin-1(2H)-yl)phenyl)piperidin-4-yl)methyl)piperazin-1-yl)pyridin-2-yl)-7H-pyrrolo[2,3-d]pyrimidin-4-yl)-5-fluoro-2-methylphenyl)ethyl)-1,2,4-oxadiazole-3-carboxamide]	0.54 nM	> 10 µM

The next lines start with results.

DC50 (BTK)	SMILES	IC50 (HEK-293 cells)
0.47 nM	Cc1cc(N2CCC(CN3CCN(c4ccc(-c5cc6c(-c7ccc([C@@H](C)NC(=O)c8noc(C(C)(C)C)n8)c(C)c7F)ncnc6[nH]5)nc4)CC3)CC2)ccc1N1CCC(=O)NC1=O [Example 128, (R)-5-(tert-butyl)-N-(1-(4-(6-(5-(4-((1-(4-(2,4-dioxotetrahydropyrimidin-1(2H)-yl)-3-methylphenyl)piperidin-4-yl)methyl)piperazin-1-yl)pyridin-2-yl)-7H-pyrrolo[2,3-d]pyrimidin-4-yl)-3-fluoro-2-methylphenyl)ethyl)-1,2,4-oxadiazole-3-carboxamide]	> 10 µM
0.33 nM	Cc1cc(-c2ncnc3[nH]c(-c4ccc(N5CCN(CC6CCN(c7ccc(N8CCC(=O)NC8=O)c(C)c7)CC6)CC5)cn4)cc23)ccc1[C@@H](C)NC(=O)c1noc(C(C)(C)C)n1 [Example 129, (R)-5-(tert-butyl)-N-(1-(4-(6-(5-(4-((1-(4-(2,4-dioxotetrahydropyrimidin-1(2H)-yl)-3-methylphenyl)piperidin-4-yl)methyl)piperazin-1-yl)pyridin-2-yl)-7H-pyrrolo[2,3-d]pyrimidin-4-yl)-2-methylphenyl)ethyl)-1,2,4-oxadiazole-3-carboxamide]	> 10 µM
0.79 nM	Cc1cc(-c2ncnc3[nH]c(-c4ccc(N5CCN(CC6CCN(c7ccc(N8CCC(=O)NC8=O)c(C)c7)CC6)CC5)cn4)cc23)c(F)cc1[C@@H](C)NC(=O)c1noc(C(C)(C)C)n1 [Example 130, (R)-5-(tert-butyl)-N-(1-(4-(6-(5-(4-((1-(4-(2,4-dioxotetrahydropyrimidin-1(2H)-yl)-3-methylphenyl)piperidin-4-yl)methyl)piperazin-1-yl)pyridin-2-yl)-7H-pyrrolo[2,3-d]pyrimidin-4-yl)-5-fluoro-2-methylphenyl)ethyl)-1,2,4-oxadiazole-3-carboxamide]	> 10 µM
0.8 nM	Cc1cc(-c2ncnc3[nH]c(-c4ccc(N5CCN(CC6CCN(c7ccc(N8CCC(=O)NC8=O)cc7)CC6)CC5)cn4)cc23)ccc1[C@@H](C)NC(=O)c1noc(C(C)(C)C)n1 [Example 133, (R)-5-(tert-butyl)-N-(1-(4-(6-(5-(4-((1-(4-(2,4-dioxotetrahydropyrimidin-1(2H)-yl)phenyl)piperidin-4-yl)methyl)piperazin-1-yl)pyridin-2-yl)-7H-pyrrolo[2,3-d]pyrimidin-4-yl)-2-methylphenyl)ethyl)-1,2,4-oxadiazole-3-carboxamide]	> 10 µM
0.17 nM	C[C@@H](NC(=O)c1noc(C(C)(C)C)n1)c1ccc(-c2ncnc3[nH]c(-c4ccc(N5CCN(CC6CCN(c7ccc(N8CCC(=O)NC8=O)cc7)CC6)CC5)cn4)cc23)cc1CO [Example 136, (R)-5-(tert-butyl)-N-(1-(4-(6-(5-(4-((1-(4-(2,4-dioxotetrahydropyrimidin-1(2H)-yl)phenyl)piperidin-4-yl)methyl)piperazin-1-yl)pyridin-2-yl)-7H-pyrrolo[2,3-d]pyrimidin-4-yl)-2-(hydroxymethyl)phenyl)ethyl)-1,2,4-oxadiazole-3-carboxamide]	> 10 µM
0.23 nM	Cc1cc(N2CCC(CN3CCN(c4ccc(-c5cc6c(-c7ccc([C@@H](C)NC(=O)c8noc(C(C)(C)C)n8)c(CO)c7)ncnc6[nH]5)nc4)CC3)CC2)ccc1N1CCC(=O)NC1=O [Example 137, (R)-5-(tert-butyl)-N-(1-(4-(6-(5-(4-((1-(4-(2,4-dioxotetrahydropyrimidin-1(2H)-yl)-3-methylphenyl)piperidin-4-yl)methyl)piperazin-1-yl)pyridin-2-yl)-7H-pyrrolo[2,3-d]pyrimidin-4-yl)-2-(hydroxymethyl)phenyl)ethyl)-1,2,4-oxadiazole-3-carboxamide]	> 10 µM
